Values quoted from earlier work as cited in patent publication US9889109B2, “Pharmaceutical composition comprising benzyl alcohol for the treatment of migraines” (St. Renatus, LLC, priority 2012, dated 2018).

pKa: approximately 8.4
unionized molecules (pH 7.4): 1-2%
SMILES: CCCCNc1ccc(C(=O)OCCN(C)C)cc1 [tetracaine, 2-(dimethylamino)ethyl 4-(butylamino)benzoate]
